The species named for assay [1] is Rattus norvegicus. As to the kind of experiment: Concentration required for GH release from isolated pituitary cells of rat tested in vitro. To be noted: Pituitary gland cell. Format: functional, cell-based.
For assay [2], the system named is Sus scrofa. Description: Release of growth hormone at single iv dose of 50 nmol/kg in pigs. Format: functional.
Assay [3] is filed under the species Rattus norvegicus. As to the kind of experiment: Efficacy was determined as percent of GHRP-6 in rat pituitary cell assay tested in vitro. Format: functional. The note with it: Pituitary gland cell.
Assay [4] deals with Sus scrofa. As to the kind of experiment: Effective dose required for release of GH from pigs in vivo. Format: functional.

Where a SMILES comes first, the peptide text is derived from it. [ ]: non-standard residue; d: D form. d2Nal = N[C@H](Cc1ccc2ccccc2c1)C(=O)O; Aib = CC(C)(N)C(=O)O

Consider `CC(=O)NCCCCCNC(=O)[C@H](Cc1ccccc1)N(C)C(=O)[C@H](Cc1ccc2ccccc2c1)N(C)C(=O)/C=C/CC(C)(C)N`, for which the EC50 (commonly the midpoint of the concentration-response curve) in assay [1] was 10 nM. Also, the GHmax in assay [2] came to 26 ng/mL. Also, the maximal response (Emax) (commonly the size of the effect at its maximum, as opposed to the concentration needed) in assay [3] was determined as 110%.

Take `CN(C)CCCN(C)C(=O)[C@H](Cc1ccccc1)N(C)C(=O)[C@H](Cc1ccc2ccccc2c1)N(C)C(=O)/C=C/CC(C)(C)N`: a half-maximal response in assay [1] (EC50) required 2 nM. The same compound showed a GHmax in assay [2] of 45 ng/mL. Besides, in assay [3], the maximum response (Emax) came out at 105%.

`CN(C)C(=O)CCCN(C)C(=O)[C@H](Cc1ccccc1)N(C)C(=O)[C@H](Cc1ccc2ccccc2c1)N(C)C(=O)/C=C/CC(C)(C)N`: the half-maximal effective concentration (EC50) in assay [1] stood at 21 nM. The GHmax in assay [2] was found to be 21 ng/mL. This compound also showed a maximum response (Emax) in assay [3] of 105%.

`CCNC(=O)NCCCCCNC(=O)[C@H](Cc1ccccc1)N(C)C(=O)[C@H](Cc1ccc2ccccc2c1)N(C)C(=O)/C=C/CC(C)(C)N`: in assay [1], the response was half-maximal at 14 nM (EC50). Also, the GHmax in assay [2] came out at 8 ng/mL. Besides, the Emax in assay [3] was 95%.

`CN(C(=O)/C=C/CC(C)(C)N)[C@@H](Cc1ccc2ccccc2c1)C(=O)N(C)[C@@H](Cc1ccccc1)C(=O)N[C@@H](CCCCN)C(N)=O` gave a concentration giving a half-maximal response (EC50) in assay [1] of 1.8 nM. The same compound came in with a GHmax in assay [2] of 76 ng/mL. This compound also came in with a maximum response (Emax) in assay [3] of 105%.

In turn, `CN(C)C(=O)[C@H](CCCCN)NC(=O)[C@H](Cc1ccccc1)N(C)C(=O)[C@H](Cc1ccc(-c2ccccc2)cc1)N(C)C(=O)/C=C/CC(C)(C)N` gave an EC50 in assay [1] of 0.15 nM. The same compound registered a GHmax in assay [2] of 116 ng/mL. The maximal effect (Emax) in assay [3] was determined as 110%.

`CN(C(=O)/C=C/CC(C)(C)N)[C@@H](Cc1ccc(-c2ccccc2)cc1)C(=O)N(C)[C@@H](Cc1ccccc1)C(=O)NCCCN` had a half-maximal effective concentration (EC50) in assay [1] of 6 nM. In assay [2], this compound displayed a GHmax of 25 ng/mL. Further, in assay [3], the maximal response (Emax) amounted to 130%.

Compound `CN(C(=O)/C=C/CC(C)(C)N)[C@@H](Cc1ccc(-c2ccccc2)cc1)C(=O)N(C)[C@@H](Cc1ccccc1)C(=O)NCCCCCCN` yielded a concentration for a half-maximal effect (EC50) in assay [1] of 1 nM. The compound also had a GHmax in assay [2] of 80 ng/mL. For the same compound, in assay [3], the maximum response (Emax) amounted to 130%.

For the compound `CN(C(=O)/C=C/CC(C)(C)N)[C@@H](Cc1ccc(-c2ccccc2)cc1)C(=O)N(C)[C@@H](Cc1ccccc1)C(=O)NCCN`, the EC50 in assay [1] worked out at 5 nM. In assay [2], this compound gave a GHmax of 62 ng/mL. In assay [3], this compound came in with an Emax of 90%.

In assay [1], `CN(C(=O)/C=C/CC(C)(C)N)[C@@H](Cc1ccc2ccccc2c1)C(=O)N(C)[C@@H](Cc1ccccc1)C(=O)NCCCCCN=C(N)N` had an EC50 of 17 nM. For the same compound, the GHmax in assay [2] was found to be 49 ng/mL. Further, the maximal response (Emax) in assay [3] was determined as 140%.

`CN(C(=O)/C=C/CC(C)(C)N)[C@@H](Cc1ccc(-c2ccccc2)cc1)C(=O)N(C)[C@@H](Cc1ccccc1)C(=O)NCCCCN` came in with a concentration for a half-maximal effect (EC50) in assay [1] of 1 nM. The same compound displayed a GHmax in assay [2] of 91 ng/mL. The compound also displayed a maximal effect (Emax) in assay [3] of 110%.

In assay [1], `CN(C)C(=O)CN(C)C(=O)[C@H](Cc1ccccc1)N(C)C(=O)[C@H](Cc1ccc2ccccc2c1)N(C)C(=O)/C=C/CC(C)(C)N` had a half-maximal effective concentration (EC50) of 10 nM. Besides, in assay [2], the GHmax was 48 ng/mL. In addition, the Emax in assay [3] is 105%.

In assay [1], `CNC(=O)CCCN(C)C(=O)[C@H](Cc1ccccc1)N(C)C(=O)[C@H](Cc1ccc2ccccc2c1)N(C)C(=O)/C=C/CC(C)(C)N` returned a concentration giving a half-maximal response (EC50) of 30 nM. In assay [2], the GHmax was determined as 32 ng/mL. Further, the Emax in assay [3] was 100%.

On to `CN(C)C(=O)[C@H](CCCCN)NC(=O)[C@H](Cc1ccccc1)N(C)C(=O)[C@H](Cc1ccc2ccccc2c1)N(C)C(=O)/C=C/CC(C)(C)N`, for which, in assay [1], the EC50 came to 0.3 nM. The GHmax in assay [2] stood at 105 ng/mL. Further, the Emax in assay [3] came to 130%.

In the case of `CN(C)CCCN(C)C(=O)[C@H](Cc1ccccc1)N(C)C(=O)[C@H](Cc1ccc(-c2ccccc2)cc1)N(C)C(=O)/C=C/CC(C)(C)N`, in assay [1], the 50% effective concentration (EC50) came to 4 nM. This compound returned a GHmax in assay [2] of 50 ng/mL. In addition, in assay [3], the maximal effect (Emax) stood at 95%.

Consider `CC(C)(N)C(=O)N[C@H](COCc1ccccc1)C(=O)N1CCC2(CC1)CN(S(C)(=O)=O)c1ccccc12` [IBUTAMOREN], for which a half-maximal effect in assay [1] (EC50) was put at 0.6 nM. The same compound had a GHmax in assay [2] of 60 ng/mL. The ED50 (usually the midpoint of the dose-response relation) in assay [4] was found to be 0.084 µmol/kg. Besides, the maximum response (Emax) in assay [3] was 115%.

In turn, `CC(C)(N)C(=O)N[C@@H](Cc1c[nH]cn1)C(=O)N[C@H](Cc1ccc2ccccc2c1)C(=O)N[C@H](Cc1ccccc1)C(=O)N[C@@H](CCCCN)C(N)=O` [IPAMORELIN] (H-[Aib]H[d2Nal][dF]K-NH2) yielded a GHmax in assay [2] of 54 ng/mL. The same compound came in with a 50% effective dose (ED50) in assay [4] of 0.0023 µmol/kg. In assay [3], the maximum response (Emax) was found to be 85%.

These data come from ChEMBL document CHEMBL1133873, “Highly potent growth hormone secretagogues: hybrids of NN703 and ipamorelin” (Bioorg Med Chem Lett, 2001).
